Assay results taken from US20230013364A1, “COMBINATION THERAPIES COMPRISING ANTIBODY MOLECULES TO PD-1” (Novartis AG, priority 2015, published 2023).
“And” between values parts separate entries of the source, which are not always exact repeats. Equal entries are not always repeated. “Also recorded” adds a separate entry of the source. Where two headings read alike, the source gives them in different places.

Key:
[1] = tested on: PD-L1 (CD274) surface expression in EBC-1 cells; assay: Flow cytometry of PD-L1 surface expression in EBC-1 cells in vitro; type: cell-based, human; details: EBC-1 cells (NSCLC with cMET amplification); 10, 100, 1000 nM; 24, 48, 72 hours; vs DMSO; FIG. 15
Method: PD-L1 (CD274) expression was analyzed in cancer cell lines treated with Compound A17. Cells were obtained from ATCC and cultured in vitro following ATCC directions. The cell lines used were previously characterized by the Cancer Cell Line Encyclopedia Project (http://www.broadinstitute.org/ccle/home).
Cells plated in six-well culture plates were treated with the Compound A17 at different concentrations (10 nM, 100 nM, and 1000 nM) for 24, 48 and 72 hours. Equal amount of vehicle (DMSO) was used as a control. Cells were washed with PBS and then harvested using a cell scraper.
For each reaction, 0.5-1×10^6 cells were stained with 20 μL of anti-human monoclonal PD-L1— PE antibody, clone M1H1 (BD) for 30-60 minutes at 4° C. Cells were washed twice and data was acquired using a Canto II with FACSDiva software (BD Bioscience). Data analysis was performed using FlowJo software (Tree Star). Mean fluorescence intensity (MFI) was determined by gating on single cells. Unstained cells were used as a gating control.

[2] = tested on: PD-L1 (CD274) mRNA in Hs.746.T tumor; assay: PD-L1 mRNA in Hs.746.T tumor xenograft; type: in vivo, human; details: Hs.746.T tumor (gastric cancer, cMET amplification & mutation) xenograft; FIG. 16
Method: (§1) TaqMan RT PCR assays were developed to detect changes of expression levels of PD-L1 (CD274) in cell lines and xenograft tumors. mRNA was isolated from frozen cell pellets or tumor fragments using the Qiagen RNeasy Mini kit. Isolated RNA was frozen at −80° C. RNA quality was checked and RNA was quantified using a 2100 Agilent Bioanalyzer following the protocol for the Agilent RNA 6000 Nano Kit. cDNA was prepared using a High Capacity RNA—to cDNA Kit (Applied Biosystems).
(§2) Real-time PCR reactions were carried out in 20 μl total volume, including 10 μl of Universal PCR master mix (Applied Biosystems), 1 μl of human PD-L1 (CD274) probe/primer set (Applied Biosystems), and 8 μl of cDNA. Each sample was run in triplicate. The amount of cDNA produced from 25-50 ng of RNA in the reverse transcription reaction was used in each PCR reaction. Due to difference in mRNA levels between PD-L1 and GAPDH, the two real-time PCR reactions were done in separate tubes using same amount of cDNA. The real-time PCR reaction was run on the C1000 Thermal Cycle (BioRad) with the cycle program as follows: a 10 minute incubation at 95° C. followed by 40 cycles of 95° C. for 15 seconds and 60° C. for 1 minute. After the reaction was complete, the PD-L1 average Ct was normalized relative to each Ct value from the GAPDH reference reaction. Each normalized logarithmic value was then converted into a linear value.

[3] = tested on: PD-L1 (CD274) mRNA in UKE-1 tumors; assay: PD-L1 mRNA in UKE-1 tumor xenograft model; type: in vivo, human; details: tumor xenograft model bearing UKE-1 (MPN line with JAK2V617F mutation); FIG. 20
Method: as §1, §2

[4] = tested on: PD-L1 (CD274) mRNA in H3122 cells; assay: TaqMan RT PCR of PD-L1 mRNA in H3122 cells in vitro; type: cell-based, human; details: H3122 (NSCLC with ALK translocation) in vitro; FIG. 17
Method: as §1, §2

[5] = tested on: PD-L1 (CD274) mRNA in LOXIMV1 tumors; assay: PD-L1 mRNA in LOXIMV1 tumor xenograft model; type: in vivo, human; details: tumor xenograft model bearing LOXIMV1 (BRAF mutant melanoma); FIG. 18
Method: as §1, §2

[6] = tested on: PD-L1 (CD274) mRNA in HEYA8 tumors; assay: PD-L1 mRNA in HEYA8 tumor xenograft model; type: in vivo, human; details: tumor xenograft model bearing HEYA8 (KRAF mutant ovarian cancer); FIG. 19
Method: as §1, §2

[7] = tested on: interferon gamma (IFN-γ) expression; type: cell-based
CD8+ T cells = assay: Proliferation of CD8+ T cells activated with CMV peptides; type: cell-based; details: percentages of CD8+ cells that passed through at least n cell divisions (n=2, 4, 6)

CNC(=O)c1ccc(-c2cnc3ncc(Cc4ccc5ncccc5c4)n3n2)cc1F [Compound A17, 2-fluoro-N-methyl-4-(7-(quinolin-6-ylmethyl)imidazo[1,2-b][1,2,4]triazin-2-yl)benzamide]
surface expression of PD-L1 (flow cytometry) [1]: Significant inhibition; also recorded: significant downregulation
PD-L1 expression (mRNA) [2]: Inhibition

N#CC[C@H](C1CCCC1)n1cc(-c2ncnc3[nH]ccc23)cn1 [Compound A18, Ruxolitinib Phosphate]
PD-L1 mRNA [3]: Significant inhibition; also recorded: Downregulation

Cc1cc(Nc2ncc(Cl)c(Nc3ccccc3S(=O)(=O)C(C)C)n2)c(OC(C)C)cc1C1CCNCC1 [Compound A23, ceritinib]
PD-L1 mRNA [4]: Significant inhibition

COC(=O)N[C@@H](C)CNc1nccc(-c2cn(C(C)C)nc2-c2cc(Cl)cc(NS(C)(=O)=O)c2F)n1 [Compound A29, Encorafenib]
PD-L1 mRNA [5]: Significant inhibition; also recorded: Downregulation

Cn1cnc2c(F)c(Nc3ccc(Br)cc3F)c(C(=O)NOCCO)cc21 [Compound A34, Binimetinib]
PD-L1 mRNA [6]: Significant inhibition; also recorded: Downregulation

B1: BAP049: murine anti-PD-1 monoclonal antibody (antibody, V domains shown)
VH: QVQLQQSGSELVRPGASVKLSCKASGYTFTTYWMHWVRQRPGQGLEWIGNIYPGTGGSNFDEKFKNRTSLTVDTSSTTAYMHLASLTSEDSAVYYCTRWTTGTGAYWGQGTLVTVSA
VL: DIVMTQSPSSLTVTAGEKVTMSCKSSQSLLDSGNQKNFLTWYQQKPGQPPKLLIFWASTRESGVPDRFTGSGSVTDFTLTISSVQAEDLAVYYCQNDYSYPCTFGGGTKLEIK
fold increase in IFN-γ expression [7]: 2.3±1.1 fold and 2.8±0.8 fold
fold increase in IFN-γ expression ([7]; cells stimulated with Staphylococcal enterotoxin B (SEB) (3 pg/mL)): 2.5±2.0 fold
proliferation of CD8+ T cells activated with CMV peptides (CD8+ T cells): increase proliferation
